Patent publication US20250313535A1, “ALPHA 4 BETA 7 INTEGRIN MODULATORS AND USES THEREOF” (DICE MOLECULES SV, INC., priority 2022, published 2025)

Target: α4β7 integrin (Homo sapiens (Human), UniProt P13612+P26010)
Experiment: Integrin Adhesion Assay: Protocol 4 (MAdCAM-coated plate, RPMI-8866 cells with stable LOF mutation of the ITGB1 gene)
Type: cell-based
Conditions: Protocol 4; RPMI-8866 cells with LOF mutation of ITGB1, MAdCAM; read-out: Mean IC50 α4β7 KO
Description: (§1) Integrin Adhesion Assay Using Genetically Modified Cells Generating Stable Cell Lines with ITGB1 or ITGB7 Knockout (Protocol 4 and Protocol 5)
(§2) To obtain subclones of the RPMI-8866 cell line (Sigma-Aldrich, St. Louis, MO) that were individually deficient in either integrin β1 or integrin β 7, CRISPR/Cas9 technology was employed (PMID: 30108345). Specifically, a Neon™ Transfection System System 10 μL Kit and the Neon™ Transfection device (both from ThermoFisher Scientific) were used.
(§3) The protocol was performed following the manufacturer instructions, described in https://www.thermofisher.com/document-connect/document-connect.html?url=https % 3A%2F%2F assets.thermofisher.com%2FTFS-Assets%2FLSG%2Fmanuals%2FMAN0017066_TrueCut Cas9_Protein_v2_UG.pdf, which is incorporated by reference herein in its entirety.
(§4) RPMI-8866 cells were transferred to a flask the day before transfection, at a confluence of 5×10^5 cells/mL. The cells were washed with PBS and resuspended in buffer R (Neon™ Transfection System, Invitrogen) to 2×10^5 cells/10 uL for each reaction. The TrueCut™ HiFi Cas9 Protein (1250 ng per reaction) was mixed with TrueGuide™ sgRNA (7.5 pmoles each/pool of 3 sequences, table 1) (ThermoFisher Scientific). This mix was combined with the RPMI-8866 cells and electroporated on the Neon system at 1700V/20 ms/1 pulse. Transfected cells were allowed to recover in 500 μL pre-warmed cRMPI media (RPMI-1640 media with 10% FBS, 100 U/ml Penicillin-Streptomycin) at 37° C., 5% CO2 for 24 hours. At that time, an extra 500 μL of pre-warmed cRMPI media was added, and cells were incubated for another 24 hours.
(§5) For flow cytometry analysis, 100 μL of the transfected cells were collected and stained with anti-itga4 (Clone: 9F10, PE, BD Pharmingen™), anti-itgb 1 (Clone: (TS2/16), Super Bright 436, eBioscience), anti-itgb7 (Clone: FIB504, Brilliant Violet 650, BD Pharmingen™) and viability dye (LIVE/DEAD™ Fixable Green Dead Cell Stain, Invitrogen™). An Attune NxT Flow Cytometer was used to analyze the CRISPR-transfected cells. The flow cytometry results were analyzed using FlowJo™ v10.8.1 Software (BD Life Sciences). Fluorescence minus one (FMO) controls were used to select appropriate gates for data analysis.
(§6) To generate an individual clones of cells deficient in either ITGB7 or ITGB1 by limiting dilution assay, the transfected cells were resuspended at 5 cells/mL and seeded in 384 well plates. Outgrowth of clones was monitored using a microscope, and 24 clones were transferred for expansion. Expression of either integrin was verified by flow cytometry in each of the clones. One clone of each integrin b7 or the integrin b1 knockout was chosen, expanded and aliquots were frozen in vapor phase liquid nitrogen.
Integrin Adhesion Assay: Protocol 4
(§7) MAdCAM (R&D Systems, 0.1 ug) was diluted in 50 μL PBS, added to each well of an opaque ELISA plate (Thermo), and incubated overnight at 4° C. Coated plates were washed once with PBS and then blocked with 200 μL of assay buffer (10 mM HEPES, 150 mM NaCl, 1 mM MnCl2, 0.1 mM CaCl2), 1% BSA) for 1 hour at 37° C. and 5% CO2. After incubation, buffer was aspirated from the plates and 50 μL of fresh assay buffer was added. Compounds were added using a compounds dispenser (Tecan), and DMSO concentration was normalized to 1% across each plate. 50 μL of RPMI-8866 cells with a stable loss of function (LOF) mutation of the ITGB1 gene (2×10^6 per mL) were added to each well and the plates were incubated for 1 hour at 37° C. at a CO2 concentration of 5%. After incubation, plates were allowed to cool to RT for 10 minutes before being washed four times in assay buffer by an automated plate washer (BioTek). After washing, 100 μL of a 1:1 mixture of assay buffer and CellTiter GLO 2.0 reagent (Promega) were added to each well. Plates were mixed for 2 minutes at 1000 rpm and then allowed to incubate an additional 10 minutes before reading out luminescence on a Tecan Spark plate reader. […]

α4β7 integrin, sequence (P13612 34-1032): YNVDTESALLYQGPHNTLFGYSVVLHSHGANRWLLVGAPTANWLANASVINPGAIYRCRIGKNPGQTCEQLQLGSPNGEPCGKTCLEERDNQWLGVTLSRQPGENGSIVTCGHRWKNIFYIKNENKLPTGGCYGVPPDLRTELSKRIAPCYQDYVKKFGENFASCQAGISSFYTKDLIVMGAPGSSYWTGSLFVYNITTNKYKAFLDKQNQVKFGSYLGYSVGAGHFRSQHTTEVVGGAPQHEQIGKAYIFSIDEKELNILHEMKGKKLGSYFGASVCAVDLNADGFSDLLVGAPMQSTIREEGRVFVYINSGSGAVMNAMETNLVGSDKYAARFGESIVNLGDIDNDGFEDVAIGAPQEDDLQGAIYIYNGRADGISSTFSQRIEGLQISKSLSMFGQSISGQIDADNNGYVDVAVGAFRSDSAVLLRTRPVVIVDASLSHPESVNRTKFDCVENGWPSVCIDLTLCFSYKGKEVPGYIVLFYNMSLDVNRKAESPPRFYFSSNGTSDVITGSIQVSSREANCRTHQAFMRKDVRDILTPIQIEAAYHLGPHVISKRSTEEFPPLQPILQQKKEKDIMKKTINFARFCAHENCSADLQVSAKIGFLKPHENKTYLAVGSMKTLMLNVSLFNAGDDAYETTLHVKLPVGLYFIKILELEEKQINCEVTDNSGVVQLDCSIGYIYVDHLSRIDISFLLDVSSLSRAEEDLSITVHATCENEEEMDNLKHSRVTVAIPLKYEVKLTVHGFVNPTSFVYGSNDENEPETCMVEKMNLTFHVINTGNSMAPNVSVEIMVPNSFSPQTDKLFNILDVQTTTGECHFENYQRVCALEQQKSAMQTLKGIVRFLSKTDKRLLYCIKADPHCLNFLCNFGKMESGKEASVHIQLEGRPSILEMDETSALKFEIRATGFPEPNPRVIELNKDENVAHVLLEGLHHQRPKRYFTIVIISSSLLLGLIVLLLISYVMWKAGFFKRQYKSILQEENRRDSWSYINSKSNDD
α4β7 integrin, sequence (P26010 20-798): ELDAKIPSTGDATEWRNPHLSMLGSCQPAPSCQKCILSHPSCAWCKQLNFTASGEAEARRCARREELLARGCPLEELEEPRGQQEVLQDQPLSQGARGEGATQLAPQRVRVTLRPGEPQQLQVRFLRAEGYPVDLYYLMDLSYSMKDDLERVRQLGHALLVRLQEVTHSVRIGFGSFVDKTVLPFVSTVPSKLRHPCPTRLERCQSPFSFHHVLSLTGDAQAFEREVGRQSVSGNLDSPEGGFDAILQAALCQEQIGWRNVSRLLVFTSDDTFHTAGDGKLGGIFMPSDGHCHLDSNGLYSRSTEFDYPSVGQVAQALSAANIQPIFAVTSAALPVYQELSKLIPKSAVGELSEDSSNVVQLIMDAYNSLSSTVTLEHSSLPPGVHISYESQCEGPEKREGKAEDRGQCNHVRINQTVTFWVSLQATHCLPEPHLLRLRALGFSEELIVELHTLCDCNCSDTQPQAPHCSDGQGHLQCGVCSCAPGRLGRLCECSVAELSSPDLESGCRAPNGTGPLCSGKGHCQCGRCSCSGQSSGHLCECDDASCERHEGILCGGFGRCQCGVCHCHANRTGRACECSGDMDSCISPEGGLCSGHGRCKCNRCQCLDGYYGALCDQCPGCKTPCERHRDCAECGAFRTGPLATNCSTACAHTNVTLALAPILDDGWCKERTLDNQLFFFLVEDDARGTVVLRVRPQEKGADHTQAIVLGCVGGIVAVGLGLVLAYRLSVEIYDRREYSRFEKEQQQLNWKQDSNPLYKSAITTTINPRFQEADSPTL

| IC50 | Compound |
| --- | --- |
| < 10 nM | CC1(C)CCN(Cc2cnc(-c3cccc4c(C[C@H](NC(=O)C5(C(F)(F)F)CCN(C6COC6)CC5)C(=O)O)cccc34)c3ccccc23)CC1 [Compound 686] |
| 10 to 100 nM | Cc1cccc(F)c1C(=O)N[C@@H](Cc1cccc2c(-c3cc(CN4CCCCC4)ccc3C(F)(F)F)cccc12)C(=O)O [Compound 689] |
| < 10 nM | COc1cc2c(c(C(F)(F)F)c1-c1cccc3c(C[C@H](NC(=O)C4(C(F)(F)F)CCN(CC(F)(F)F)CC4)C(=O)O)cccc13)CN(C)CC2 [Compound 736] |

Same assay, conditions: RPMI-8866 cells with stable LOF mutation of the ITGB1 gene; read-out: Mean IC50 α4β7 KO^a

| IC50 | Compound |
| --- | --- |
| > 1000 nM | O=C(N[C@@H](Cc1cccc2c(-c3cccc4ccncc34)cccc12)C(=O)O)c1c(F)cccc1F [Compound 295] |
| > 1000 nM | Cn1c(=O)c(-c2cccc3c(C[C@H](NC(=O)C45CC(NCC(F)(F)F)(C4)C5)C(=O)O)cccc23)c(C(F)(F)F)c2ccccc21 [Compound 446] |
| 100 to 1000 nM | CO[C@H]1C[C@@H](c2cc(F)c(C(=O)N[C@@H](Cc3cccc4c(-c5c(C(F)(F)F)c6ccccc6n(C)c5=O)cccc34)C(=O)O)c(F)c2)N(C)C1 [Compound 466] |
| 100 to 1000 nM | CO[C@H]1C[C@H](c2cc(F)c(C(=O)N[C@@H](Cc3cccc4c(-c5c(C(F)(F)F)c6ccccc6n(C)c5=O)cccc34)C(=O)O)c(F)c2)N(C)C1 [Compound 467] |
| 100 to 1000 nM | Cn1c(=O)c(-c2cccc3c(C[C@H](NC(=O)c4c(F)ccc(C5CC5)c4F)C(=O)O)cccc23)c(C(F)(F)F)c2ccccc21 [Compound 488] |
| > 1000 nM | CC1CC(C)(C(=O)N[C@@H](Cc2cccc3c(-c4c(C(F)(F)F)c5ccccc5n(C)c4=O)cccc23)C(=O)O)CCN1CC(F)(F)F (stereo partly shown) [Compound 528] |
| > 1000 nM | CC(C)CC1CC(C)(C(=O)N[C@@H](Cc2cccc3c(-c4c(C(F)(F)F)c5ccccc5n(C)c4=O)cccc23)C(=O)O)CCN1CC(F)(F)F (stereo partly shown) [Compound 529] |
| < 10 nM | COc1cccc(CN2CCCCC2)c1-c1cccc2c(C[C@H](NC(=O)c3c(F)cccc3C3CC3)C(=O)O)cccc12 [Compound 541] |
| 10 to 100 nM | COc1ccc(CN2CC3CCC(C2)O3)c(OC)c1-c1cccc2c(C[C@H](NC(=O)c3c(C)cccc3F)C(=O)O)cccc12 [Compound 568] |
| 100 to 1000 nM | CCCS(=O)(=O)N1CCC(C(=O)N[C@@H](Cc2cccc3c(-c4c(OC)ccc(CN5CCC(F)(F)CC5)c4OC)cccc23)C(=O)O)(C(F)(F)F)CC1 [Compound 617] |
| < 10 nM | COc1ccc(CN2CCCC(F)C2)c(OC)c1-c1cccc2c(C[C@H](NC(=O)c3c(C)cc(C45CCOCC4C5)cc3F)C(=O)O)cccc12 (stereo partly shown) [Compound 663] |
| 10 to 100 nM | O=C(N[C@@H](Cc1cccc2c(-c3ncc(CN4CCCCC4)c4ccccc34)cccc12)C(=O)O)c1c(F)cccc1F [Compound 678] |

Target: α4β1 integrin (Homo sapiens (Human), UniProt P05556+P13612)
Sequence (P13612 34-1032): as the sequence (P13612 34-1032) above
Sequence (P05556 21-798): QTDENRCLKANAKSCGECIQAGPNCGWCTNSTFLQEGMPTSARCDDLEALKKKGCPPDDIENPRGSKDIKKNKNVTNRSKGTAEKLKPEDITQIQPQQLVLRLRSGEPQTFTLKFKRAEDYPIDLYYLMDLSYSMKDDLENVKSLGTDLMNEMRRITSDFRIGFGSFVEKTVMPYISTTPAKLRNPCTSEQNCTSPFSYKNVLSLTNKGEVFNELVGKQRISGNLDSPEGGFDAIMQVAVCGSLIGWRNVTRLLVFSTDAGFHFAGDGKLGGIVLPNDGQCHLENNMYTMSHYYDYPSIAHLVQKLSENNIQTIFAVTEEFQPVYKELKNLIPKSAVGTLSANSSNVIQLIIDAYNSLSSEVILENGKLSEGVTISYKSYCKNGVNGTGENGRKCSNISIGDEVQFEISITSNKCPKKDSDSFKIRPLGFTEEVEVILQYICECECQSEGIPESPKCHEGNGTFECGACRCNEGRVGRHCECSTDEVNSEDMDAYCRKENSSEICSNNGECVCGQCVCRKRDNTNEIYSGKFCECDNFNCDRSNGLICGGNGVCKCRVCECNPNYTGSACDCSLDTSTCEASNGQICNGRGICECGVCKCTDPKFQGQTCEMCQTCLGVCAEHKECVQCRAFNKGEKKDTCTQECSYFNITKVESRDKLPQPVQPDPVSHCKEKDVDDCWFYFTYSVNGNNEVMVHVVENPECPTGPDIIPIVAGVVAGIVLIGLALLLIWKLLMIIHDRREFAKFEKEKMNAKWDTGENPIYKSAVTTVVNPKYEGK
Experiment: Integrin Adhesion Assay: Protocol 5 (VCAM-coated plate, RPMI-8866 cells with stable LOF mutation of the ITGB7 gene)
Type: cell-based
Conditions: Protocol 5; RPMI-8866 cells with LOF mutation of ITGB7, VCAM; read-out: Mean IC50 α4β1 KO
Description: as §1, §2, §3, §4, §5, §6
Integrin Adhesion Assay: Protocol 5
as §7, with “VCAM” for “MAdCAM”, “by” for “using a”, “(Tecan)” for “(Tecan),”, “LOF” for “loss of function (LOF)”, “ITGB7” for “ITGB1”, “and 5% CO2.” for “at a CO2 concentration of 5%.”

| Compound | IC50 |
| --- | --- |
| COc1cccc(CN2CCCCC2)c1-c1cccc2c(C[C@H](NC(=O)c3c(F)cccc3-c3ccccc3)C(=O)O)cccc12 [Compound 693] | > 1000 nM |
| Cn1c(=O)c(-c2cccc3c(C[C@H](NC(=O)c4c(F)cccc4F)C(=O)O)cccc23)c(C(F)(F)F)c2cc(CCN3CC(F)C3)ccc21 [Compound 715] | > 1000 nM |
| CC[C@@H]1CCCCN1Cc1cnc(-c2cccc3c(C[C@H](NC(=O)C4(C(F)(F)F)CCN(CC(F)F)CC4)C(=O)O)cccc23)c2ccccc12 [Compound 932] | 100 to 1000 nM |
| Cc1cccc(F)c1C(=O)N[C@@H](Cc1cccc2c(-c3ccccc3OCCN3CCCCC3)cccc12)C(=O)O [Compound 1007] | > 1000 nM |
| Cc1cccc(F)c1C(=O)N[C@@H](Cc1cccc2c(-c3ncc(CN4CCC(F)(F)CC4)c4ccccc34)cccc12)C(=O)O [Compound 1031] | > 1000 nM |
| Cc1cccc(F)c1C(=O)N[C@@H](Cc1cccc2c(-c3c(C(F)(F)F)c4cc(CN5CCC(F)(F)CC5)ccc4n(C)c3=O)cccc12)C(=O)O [Compound 1032] | > 1000 nM |

Results, then the molecule that gave them:

| IC50 | Compound |
| --- | --- |
| > 1000 nM | O=C(O)[C@H](Cc1cccc2c(-c3c(CN4CCCCC4)ccc4cccnc34)cccc12)NC(=O)C1(C(F)(F)F)CCN(CC(F)(F)F)CC1 [Compound 767] |
| > 1000 nM | COc1c(-c2cccc3c(C[C@H](NC(=O)C4(C(F)(F)F)CCN(CC(F)(F)F)CC4)C(=O)O)cccc23)cc(CN2CCCCC2)cc1C(F)(F)F [Compound 769] |
| > 1000 nM | O=C(O)[C@H](Cc1cccc2c(-c3cccc4ocnc34)cccc12)NC(=O)C1(C(F)(F)F)CCN(CC(F)(F)F)CC1 [Compound 770] |
| > 1000 nM | O=C(O)[C@H](Cc1cccc2c(-c3cccc4ncoc34)cccc12)NC(=O)C1(C(F)(F)F)CCN(CC(F)(F)F)CC1 [Compound 771] |
| > 1000 nM | O=C(O)[C@H](Cc1cccc2c(-c3cccc4cnoc34)cccc12)NC(=O)C1(C(F)(F)F)CCN(CC(F)(F)F)CC1 [Compound 772] |
| > 1000 nM | COc1cc2ccccc2cc1-c1cccc2c(C[C@H](NC(=O)C3(C(F)(F)F)CCN(CC(F)(F)F)CC3)C(=O)O)cccc12 [Compound 775] |
| > 1000 nM | COc1c(-c2cccc3c(C[C@H](NC(=O)C4(C(F)(F)F)CCN(CC(F)(F)F)CC4)C(=O)O)cccc23)ccc2ccccc12 [Compound 776] |
| 100 to 1000 nM | COc1ccc(CCN2CCCC(F)C2)c(OC)c1-c1cccc2c(C[C@H](NC(=O)C3(C(F)(F)F)CCN(CC(F)(F)F)CC3)C(=O)O)cccc12 (stereo partly shown) [Compound 826] |
| > 1000 nM | CN(Cc1cnc(-c2cccc3c(C[C@H](NC(=O)C4(C(F)(F)F)CCN(CC(F)(F)F)CC4)C(=O)O)cccc23)c2ccccc12)CC(F)(F)F [Compound 895] |
| > 1000 nM | CN(Cc1cnc(-c2cccc3c(C[C@H](NC(=O)C4(C(F)(F)F)CCN(CC(F)F)CC4)C(=O)O)cccc23)c2ccccc12)CC(F)(F)F [Compound 923] |
| 100 to 1000 nM | COc1ccc(CN2CCC(C(F)(F)F)CC2)cc1-c1cccc2c(C[C@H](NC(=O)C3(C(F)(F)F)CCN(CC(F)F)CC3)C(=O)O)cccc12 [Compound 939] |

Same assay, conditions: RPMI-8866 cells with stable LOF mutation of the ITGB7 gene; read-out: Mean IC50 α4β1 KO^b

| IC50 | Compound |
| --- | --- |
| > 1000 nM | CN(C)Cc1cccc2c(-c3cccc4c(C[C@H](NC(=O)c5c(F)cc(N6CCOC[C@@H]6C(F)(F)F)cc5CN5CCC(N(C)C)CC5)C(=O)O)cccc34)nccc12 [Compound 434] |
| 100 to 1000 nM | Cn1c(=O)c(-c2cccc3c(C[C@H](NC(=O)C4(C(F)(F)F)CCN([C@H]5CCOC5)CC4)C(=O)O)cccc23)c(C(F)(F)F)c2ccccc21 [Compound 458] |
